Experimental data reported in US7612238B2, “Amino-propanol derivatives” (Novartis AG, priority 2002, dated 2009).
Where a name gives a salt, the structure may show the parent alone.

Key:
[1] = tested on: peripheral blood lymphocytes; experiment: In vivo: blood lymphocyte depletion; settings: rats, p.o.
Description: B. In Vivo: Blood Lymphocyte Depletion
A compound of formula I or the vehicle is administered orally by gavage to rats. Tall blood for hematological monitoring is obtained on day −1 to give the baseline individual values, and at 2, 6, 24, 48 and 72 hours after application. In this assay, the compounds of formula I deplete peripheral blood lymphocytes when administered at a dose of 0.03 to 3 mg/kg.

[2] = target: T1, human S1P receptors (S1P1) (Homo sapiens, UniProt P21453); experiment: S1P receptor profiling, GTP[γ-35S] binding SPA, S1P1; assay type: biochemical; design: key to S1P1 mode of action (Agon = agonist): Agon = agonist; settings: for EC50: GTP[γ-35S] binding, membranes of transfected CHO or RH7777 cells
T1 construct: expressed in transfected cells
T1 sequence (P21453 whole entry): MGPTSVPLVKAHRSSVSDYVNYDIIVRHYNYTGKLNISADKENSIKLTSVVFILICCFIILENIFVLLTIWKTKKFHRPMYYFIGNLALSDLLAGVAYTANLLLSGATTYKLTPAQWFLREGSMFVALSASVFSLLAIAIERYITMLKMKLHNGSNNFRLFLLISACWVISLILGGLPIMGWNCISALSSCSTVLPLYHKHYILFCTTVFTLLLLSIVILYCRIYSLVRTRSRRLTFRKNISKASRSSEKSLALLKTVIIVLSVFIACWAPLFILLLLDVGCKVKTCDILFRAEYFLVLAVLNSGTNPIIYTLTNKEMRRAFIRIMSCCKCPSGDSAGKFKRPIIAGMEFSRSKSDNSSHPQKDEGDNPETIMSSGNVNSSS
Description: (§1) The compounds of formula I have binding affinity to individual human S1P receptors as determined in following assays:
(§2) Sphingosine-1-Phosphate (S1P) Receptor Profiling
(§3) Agonist activities of compounds are tested on the human S1P receptors (S1P1), (S1P3), (S1P2), (S1P4) and (S1P5). […] The assay technology used is SPA (scintillation proximity based assay). Briefly, DMSO dissolved compounds are serially diluted and added to SPA-bead (Amersham-Pharmacia) immobilised S1P receptor expressing membrane protein (10-20 μg/well) in the presence of 50 mM Hepes, 100 mM NaCl, 10 mM MgCl2, 10 μM GDP, 0.1% fat free BSA and 0.2 nM GTP [γ-^35S] (1200 Ci/mmol). After incubation in 96 well microtiterplates at RT for 120 min, unbound GTP [γ-^35S] is separated by a centrifugation step. Luminescence of SPA beads triggered by membrane bound GTP [γ-^35S] is quantified with a TOPcount plate reader (Packard). EC50s are calculated using standard curve fitting software.

[3] = target: T2, human S1P receptors (S1P2) (Homo sapiens, UniProt O95136); experiment: S1P receptor profiling, GTP[γ-35S] binding SPA, S1P2; assay type: biochemical; settings: membranes of transfected CHO or RH7777 cells
T2 construct: expressed in transfected cells
T2 sequence (O95136 whole entry): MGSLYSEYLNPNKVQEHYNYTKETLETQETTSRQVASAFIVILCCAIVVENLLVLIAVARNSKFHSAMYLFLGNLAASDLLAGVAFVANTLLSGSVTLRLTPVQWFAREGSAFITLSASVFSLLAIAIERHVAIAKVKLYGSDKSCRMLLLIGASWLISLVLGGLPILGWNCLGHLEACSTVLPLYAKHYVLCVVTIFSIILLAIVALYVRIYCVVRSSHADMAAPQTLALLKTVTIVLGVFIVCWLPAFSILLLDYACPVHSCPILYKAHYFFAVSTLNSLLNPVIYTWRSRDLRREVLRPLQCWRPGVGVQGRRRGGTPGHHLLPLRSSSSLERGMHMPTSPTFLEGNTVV
Description: as §1, §2, §3

[4] = target: T3, human S1P receptors (S1P3) (Homo sapiens, UniProt Q99500); experiment: S1P receptor profiling, GTP[γ-35S] binding SPA, S1P3; assay type: biochemical; design: key to S1P3 mode of action (Agon = agonist): Agon = agonist; settings: for EC50: GTP[γ-35S] binding, membranes of transfected CHO or RH7777 cells
T3 construct: expressed in transfected cells
T3 sequence (Q99500 whole entry): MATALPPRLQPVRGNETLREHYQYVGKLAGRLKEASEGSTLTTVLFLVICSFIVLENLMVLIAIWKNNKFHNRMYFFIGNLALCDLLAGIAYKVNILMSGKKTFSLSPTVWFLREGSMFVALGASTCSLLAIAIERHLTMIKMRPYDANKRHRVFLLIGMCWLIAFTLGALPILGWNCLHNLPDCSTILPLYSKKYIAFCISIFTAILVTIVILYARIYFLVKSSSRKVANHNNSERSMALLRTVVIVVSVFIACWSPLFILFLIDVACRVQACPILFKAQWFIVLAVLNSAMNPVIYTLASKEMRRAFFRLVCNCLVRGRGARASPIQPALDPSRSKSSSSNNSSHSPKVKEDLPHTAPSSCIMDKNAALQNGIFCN
Description: as §1, §2, §3

[5] = target: T4, human S1P receptors (S1P4) (Homo sapiens, UniProt O95977); experiment: S1P receptor profiling, GTP[γ-35S] binding SPA, S1P4; assay type: biochemical; design: key to S1P4 mode of action (Agon = agonist): Agon = agonist; settings: for EC50: GTP[γ-35S] binding, membranes of transfected CHO or RH7777 cells; for S1P4 mode of action (Agon = agonist): column beside S1P4 EC50
T4 construct: expressed in transfected cells
T4 sequence (O95977 1-384): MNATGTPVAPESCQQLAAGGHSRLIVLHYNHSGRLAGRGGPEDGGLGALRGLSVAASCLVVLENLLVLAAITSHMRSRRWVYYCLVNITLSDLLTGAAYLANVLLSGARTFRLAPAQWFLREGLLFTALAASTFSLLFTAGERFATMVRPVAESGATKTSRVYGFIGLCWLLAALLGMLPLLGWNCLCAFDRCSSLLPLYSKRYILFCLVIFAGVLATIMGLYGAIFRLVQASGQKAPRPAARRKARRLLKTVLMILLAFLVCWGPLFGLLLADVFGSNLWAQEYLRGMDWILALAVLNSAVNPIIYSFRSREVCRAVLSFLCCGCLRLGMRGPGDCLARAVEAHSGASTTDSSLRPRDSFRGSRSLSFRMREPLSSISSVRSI
Description: as §1, §2, §3

[6] = target: T5, human S1P receptors (S1P5) (Homo sapiens, UniProt Q9H228); experiment: S1P receptor profiling, GTP[γ-35S] binding SPA, S1P5; assay type: biochemical; design: key to S1P5 mode of action (Agon = agonist): Agon = agonist; settings: for EC50: GTP[γ-35S] binding, membranes of transfected CHO or RH7777 cells; for S1P5 mode of action (Agon = agonist): column beside S1P5 EC50
T5 construct: expressed in transfected cells
T5 sequence (Q9H228 whole entry): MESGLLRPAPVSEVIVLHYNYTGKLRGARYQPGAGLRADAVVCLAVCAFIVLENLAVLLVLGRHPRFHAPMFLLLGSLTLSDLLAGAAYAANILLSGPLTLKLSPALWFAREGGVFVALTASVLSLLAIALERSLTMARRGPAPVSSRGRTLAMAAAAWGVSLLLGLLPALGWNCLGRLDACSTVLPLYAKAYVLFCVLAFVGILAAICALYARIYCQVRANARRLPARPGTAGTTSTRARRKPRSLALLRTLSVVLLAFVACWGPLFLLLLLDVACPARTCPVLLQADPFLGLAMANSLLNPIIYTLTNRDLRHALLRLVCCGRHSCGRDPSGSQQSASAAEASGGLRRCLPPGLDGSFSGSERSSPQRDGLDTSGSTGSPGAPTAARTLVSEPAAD
Description: as §1, §2, §3

Row | melting point [°C] | S1P1 mode of action (Agon = agonist) [2] | EC50 [2] [nM] | EC50 [3] [nM] | EC50 [4] [nM] | EC50 [5] [nM] | S1P4 mode of action (Agon = agonist) [5] | EC50 [6] [nM] | S1P5 mode of action (Agon = agonist) [6] | S1P3 mode of action (Agon = agonist) ([4]; column beside S1P3 EC50) | SMILES | dose giving depletion of peripheral blood lymphocytes by more than 50% ([1]; after 6 h) [mg/kg] | dose giving depletion of peripheral blood lymphocytes by more than 50% ([1]; after 24 h) [mg/kg]
1 | 186 to 189 |  |  |  |  |  |  |  |  |  | C[C@](N)(CO)CCc1ccc(OCCCC(F)(F)C(F)(F)F)cc1 (as salt: hydrochloride) [Example 1, (R)-2-Amino-2-methyl-4-[4-(4,4,5,5,5-pentafluoro-pentyloxy)-phenyl]-butan-1-ol Hydrochloride] |  | 
2 | 143 to 146 |  |  |  |  |  |  |  |  |  | C[C@](N)(CO)CCc1ccc(OCCCCCF)cc1 (as salt: hydrochloride) [Example 2, (R)-2-Amino-2-methyl-4-[4-(5-fluoro-pentyloxy)-phenyl]-butan-1-ol Hydrochloride] |  | 
3 | 229 to 231 | Agon | 16.1 | > 10000 | > 10000 | 15.3 | Agon | 0.9 | Agon |  | C[C@@](N)(CCc1ccc(OCCCC(F)(F)C(F)(F)F)cc1)COP(=O)(O)O [Example 34, Mono-(R)-2-Amino-2-methyl-4-[4-(4,4,5,5,5-pentafluoro-pentyloxy)-phenyl]-but-2-yl phosphate] |  | 
4 |  | Agon | 4.1 | > 10000 | > 10000 | 1.8 | Agon | 21.7 | Agon |  | CC(N)(CCc1ccc(OCCc2ccc3ccccc3c2)cc1)COP(=O)(O)O (stereo not drawn) [Example 42] |  | 
5 |  | Agon | 0.3 | > 10000 | 196 | > 10000 |  | 1.5 | Agon | Agon | C[C@@](N)(CCc1ccc(C(=O)CCc2ccc(-c3ccccc3)cc2)cc1)COP(=O)(O)O [Example 50] |  | 

More lines, now with the values behind:

Row | SMILES | melting point [°C] | S1P1 mode of action (Agon = agonist) [2] | EC50 [2] [nM] | EC50 [3] [nM] | EC50 [4] [nM] | EC50 [5] [nM] | S1P4 mode of action (Agon = agonist) [5] | EC50 [6] [nM] | S1P5 mode of action (Agon = agonist) [6] | S1P3 mode of action (Agon = agonist) ([4]; column beside S1P3 EC50) | dose giving depletion of peripheral blood lymphocytes by more than 50% ([1]; after 6 h) [mg/kg] | dose giving depletion of peripheral blood lymphocytes by more than 50% ([1]; after 24 h) [mg/kg]
6 | C[C@](N)(CO)CCc1ccc(OCCCC(F)(F)C(F)(F)F)cc1 [Example 1, (R)-2-Amino-2-methyl-4-[4-(4,4,5,5,5-pentafluoro-pentyloxy)-phenyl]-butan-1-ol Hydrochloride] |  |  |  |  |  |  |  |  |  |  | 0.2 | 0.1
7 | C[C@@](N)(CCc1ccc(OCCCCCF)cc1)COP(=O)(O)O [Example 35, Mono-(R)-2-Amino-2-methyl-4-[4-(5-fluoro-pentyloxy)-phenyl]-but-2-yl phosphate] | 237 to 241 |  |  |  |  |  |  |  |  |  |  | 
8 | COc1ccc(CCOc2ccc(CCC(N)(CO)COP(=O)(O)O)cc2)cc1F (stereo not drawn) [Example 94] |  | Agon | 12.2 | > 10000 | > 10000 |  |  | 4.9 | Agon |  |  | 
